SMILES	melting point [°C]
CCCCc1nc(C(=O)OC)c(C(=O)OC)[nH]1	88
Cc1cccc(/C=C/c2nc(COc3ccc(CCCCn4ccnc4CC(O)CO)cc3)co2)c1 (stereo not drawn)	102 to 104
CC1CCN(C(=O)NCCc2ccc(S(=O)(=O)NC(=O)NC3CCC(C)C3)cc2)C(=O)C1 (stereo not drawn)	145 to 147
Cc1ccc(S(=O)(=O)NCCC(C(=O)OC(C)(C)C)C2(CC(C)C)CCN(CCc3ccccc3)C2=O)cc1 (stereo not drawn)	136 to 138
ClC(c1ccccc1)(c1ccccc1)c1ccncc1	84.5 to 86.5
CC12CCC3C(CCC4C(=O)CCCC43C)C1CCC2O (stereo not drawn)	123 to 126
CC(C)NC1=NS(=O)(=O)c2cc(F)c(Cl)cc2N1	282 to 285
CN(C)CCC1(CO)c2ccccc2N(C)c2ccccc21	150
CCOC(=O)c1c(C(F)(F)F)nsc1SC	64 to 65
O=c1n(-c2ccc(OCC(F)(F)C(F)F)cc2)cnn1CC(O)(Cn1cncn1)c1ccc(F)cc1F (racemic)	79 to 80
OC(CNC(c1ccccc1)C(O)c1ccccc1)CNC(c1ccccc1)C(O)c1ccccc1 (stereo not drawn)	155 to 175
CCOC(=O)c1[nH]c(CC2CCC2)nc1C(F)(F)F	136 to 138
CN(C)c1nc2sc3c(NCc4ccco4)ncnc3c2c2c1CCC2(C)C	89.3 to 91
CCOC(=O)c1ccc(OCCCCCCCc2cc(C)no2)cc1	60 to 61
COc1ccc(C=O)c(O[Si](C)(C)C(C)(C)C)c1O[Si](C)(C)C(C)(C)C	74 to 75
CCCNC1=NS(=O)(=O)c2cc(Cl)sc2N1	246 to 247
CC(C)(C)OC(=O)N1CC2CC(CN(CC(O)COc3ccc(C(C)(C)C)cc3)C2)C1 (stereo not drawn)	75 to 77
COC(=O)c1cc([N+](=O)[O-])cc(-c2ccc(NC(=O)OC(C)(C)C)cc2)c1C	131 to 132
CC(C)Cn1c(=O)n(C)c(=O)c2c(SCCCO)c(C(O)c3cccc4ccccc34)sc21 (stereo not drawn)	100 to 105
O=CN1CCN(C2=C(O)C(=O)c3ccccc3C2=O)CC1	200 to 203
C=CC(=O)Nc1ccc(-c2ccc(C(=O)N3CCN4CCC3CC4)o2)cc1	230 to 246

SMILES	melting point [°C]
O=C(CCl)Nc1cc(Br)cc([N+](=O)[O-])c1NC(=O)CCl	172 to 173
COC(=O)c1ccc(OCC(N)=O)c(N)c1	181 to 182
CCc1nc(CC)c(CO)c(-c2ccccc2)c1C=C(C)C	103 to 104
CC(Oc1ccccc1)(c1ccc(O)cc1)c1ccc(O)cc1	172 to 174
CCOC(=O)COc1cccc2c1CCc1sc(SCC(c3ccccc3)c3ccccc3)nc1-2	92 to 93
CC(C)N(N)C(=O)N1CCCC1C(=O)OC(C)(C)C (stereo not drawn)	87 to 91
CC(C)(C)OC(=O)N[C@@H](Cc1ccc(-c2ccccc2)cc1)C(=O)O	122 to 123
CC1=C(CNC(=O)NCc2ccccc2)c2cc(F)ccc2/C1=C\c1ccc(S(C)(=O)=O)cc1	204
C#CCOC(=O)C1=C(C)NC(C)=C(C(=O)OCC)C1c1cccc([N+](=O)[O-])c1 (stereo not drawn)	132 to 133
Clc1ccc2c(C3=CCN(CCC4CCc5ccccc54)CC3)c[nH]c2c1 (stereo not drawn)	181 to 183
Cc1nc(C)c(C(C)(O)c2ccsc2)o1 (stereo not drawn)	132 to 133
COc1cccc2c1SCC(=O)C2	60
CCOC(=O)Cc1nc(-c2ccccc2)oc1C(C)C	37 to 38
Nc1nc(-c2ccc(CCCCN3CCN(c4cccc5ccccc45)CC3)cc2)cs1	242 to 245
COc1ccc(-c2c(C(=O)O)[nH]c3cc(OC)c(OC)cc23)cc1OC	198 to 200
Cc1cccc(-c2nsc(C(=O)O)c2C(=O)O)c1	166 to 167
CON=C(C(N)=NO)c1ccccc1COc1ccccc1C	110 to 112
Cc1nc[nH]c(=O)c1Cc1ccccc1	140 to 142
O=C1CC2(CCCC2)C1(Cl)CC(Cl)(Cl)Cl (stereo not drawn)	70 to 73
COc1ccccc1N(CN1C(=O)CN(C)C1=O)C(C)=O	169 to 172
Cn1c(C(F)(F)F)cc(=O)n(-c2ccc3snc(CN(C(=O)OC(C)(C)C)S(C)(=O)=O)c3c2)c1=O	109 to 111

SMILES	melting point [°C]
CCCCOc1c(CNC(=O)OC(C)(C)C)n(CC2CC2)c(=O)c2ccc(C(N)=O)cc12	202 to 203
CCOCn1c(N)c(C#N)c2c(N)ncnc21	229 to 230
COC(=O)NC(C)(C)c1ccc(CS(=O)(=O)c2ccc(C)c(C)c2)cc1	146 to 149
CCCCc1nc2c(N)nc3c(c2n1CC(C)(C)OCCS(C)(=O)=O)CCCC3	146 to 148
COc1c(C(N)=O)sc(C(N)=O)c1N=NN(C)C	226 to 228
OCCOc1cncc(Cl)c1	38 to 40
CCCCc1ccc(OC)c(-c2csc(NC(=O)c3ccc(C(=O)O)cc3)n2)c1	160
Cc1ccc(S(=O)(=O)N2C(=O)[C@H]3CC=C[C@H]32)cc1	93 to 95
O=C(C=Cc1cccc(S(=O)(=O)Nc2cccc3ccccc23)c1)NO	180
CCOC(=O)c1cn(CC)c2nc(N3CCCC3)ncc2c1=O	202
O=C(O)C=CC(=O)NCCCCCCCCCCCCCCCCCC(=O)O	144 to 148
Cc1c(C)c2c(c(C)c1O)CC[C@@](C)(CCBr)O2	120
CC(C)(C)c1nc(N)nc(C(C)(C)C)c1O	92 to 93
CCCc1c(OCCCOC2CC(CC(=O)O)Oc3ccccc32)ccc(C(C)=O)c1O (stereo not drawn)	102 to 105
CCN1CNS(=O)(=O)c2sc(Cl)cc21	119 to 120
CNC(=O)Cc1ccccc1O	105 to 106
COc1ccc(C)cc1NC(=O)Nc1ccc(N2CCN(C(=O)Nc3ccccc3)CC2)cc1	221
CC(C)N1CCC(CN2CCN(CCCN3CCCCC3)C2=C(C#N)C#N)CC1	115 to 117
Cc1ccccc1CCOCC(=O)O	47 to 48
CCOC(=O)CCSc1nnsc1-c1ccccc1	57.5 to 58.5

Results, then the molecule that gave them:

melting point [°C]	SMILES
131 to 133	CCCCc1ncc(C(C)CC(=O)O)n1Cc1ccccc1Cl (stereo not drawn)
202 to 203	O=C(NCCO)c1cccc(-c2cccc3nn(Cc4cccc(Cl)c4)cc23)c1
101 to 103	CN1CCC(=C2c3ccccc3OCc3cc(Br)sc32)CC1
186 to 188	Cc1ccc2nc(-c3ccc(Cl)cc3)c(CN3CCCC3=O)n2c1
156	Cc1ccc(C(=O)c2ccc3nc(Cl)nc(-c4cccc(Cl)c4)c3c2)cc1
280 to 282	O=C1NC(=O)c2c1c(-c1ccccc1)cc1c2c2cc(O)ccc2n1CCCBr
200 to 201	CCc1ccc2c(c1)c(-c1ccccc1Cl)c(C(=O)O)c(=O)n2C
154	O=C(c1cc(Cl)ccc1O)c1cc(Cl)ccc1O
131 to 132	Cc1c(O)ccc(C(=O)c2ccccc2F)c1C
88.5 to 90.5	CSc1ccc2ncccc2c1N
77 to 79	Nc1ccnn1-c1cccc(C(F)(F)F)c1
200 to 202	CC1CCN(c2ccc(C(=O)Nc3ccc4nc(CN5CCCC5)ccc4c3)cc2)CC1
286 to 288	COc1cccc(Cl)c1-c1cc2c(c3c1C(=O)NC3=O)c1cc(O)ccc1n2CCCBr
127 to 128	COc1ccc(S(=O)(=O)Nc2ccccc2Nc2ccc(Cl)cc2)cc1
100 to 108	CC(=O)c1cnc(-c2ccccc2)nc1-c1ccccc1
200 to 201	CSC1=Nc2ccccc2Cc2nccn21
165 to 166	O=C(c1cccnc1)N1CC2COc3ccc(Cl)cc3C2=N1 (stereo not drawn)
233 to 235	CC1(C(=O)c2c[nH]c3ncc(-c4ccc(N5CCOCC5)cc4)nc23)CCCCC1
180 to 181	COc1ccc(Cn2cc3nc(Cl)nc(-c4c(F)cccc4OC)c3n2)cc1
243 to 247	COc1cc2c(cc1Cl)C(c1ccccc1Cl)C(=O)N2 (stereo not drawn)
133 to 134	O=C1CCCC(C(=O)c2ccc(Cc3ccc(F)cc3)o2)=C1O

melting point [°C]	SMILES
92 to 95	CC(C)NCCC(C(N)=O)c1ccccc1-c1ccccc1 (stereo not drawn)
171 to 173	CC(C)(C)c1ccc2c(c1)C=C(C(=O)O)C(C(F)(F)F)O2 (stereo not drawn)
216 to 218	COc1ccc(C(=O)c2ccc(=O)[nH]c2C=CN(C)C)cc1
262 to 264	CCc1cc(C=Cc2nc3ccccc3o2)c(=O)[nH]c1C
157 to 160	COc1cccc(NC(=O)NCc2ccc(Nc3n[nH]c4ncnc(Nc5cccc(Cl)c5)c34)cc2)c1
81.5 to 83	O=C(c1ccc(Cl)cc1)C(Br)c1ccc(Cl)cc1 (stereo not drawn)
258 to 259	COC(=O)c1cc(C(=O)Nc2nccs2)c2cc(Cc3ccc(F)cc3)cnc2c1O
79	COCc1cc(Cl)n2nc(SCc3ccccc3)nc2n1
147 to 149	CCOC(=O)c1cnc2c(c(C)nn2-c2ccccn2)c1N
174 to 175	CCCc1ncc(/C=C(\Cc2cccs2)c2nnn[nH]2)n1Cc1ccccc1Cl
144 to 146	O=C(O)Cc1ccc(-c2ccc(F)cc2)c(F)c1
157 to 159	NC(=O)CCN1CC2CN(Cc3ccccc3)CC(C1)O2
169 to 170	O=C(NC1CCCC1)c1ccc2nonc2c1
212 to 214	COC(c1ccc(Cl)cc1)(c1ccc(NC(=O)c2cccc(I)c2C(=O)NC(C)C)c(C)c1)C(F)(F)F (stereo not drawn)
120	CS(=O)(=O)c1ccc(-c2cc(=O)cc(CO)o2)cc1
> 350	O=c1[nH]c2cc(Cl)ccc2c(O)c1-c1cccc(F)c1
236 to 237	CN1CCc2c([nH]c3ccc(NS(=O)(=O)c4ccc(N)cc4)cc23)C1
70 to 74	CCC1c2cccn2-c2ccc(Cl)cc2N1C(=O)c1ccc(OC)cc1OC (stereo not drawn)
245	O=C(Nc1cccc(S(=O)(=O)N2CCCC2)c1)c1cnn2c(C(F)F)cc(-c3ccc(Cl)c(Cl)c3)nc12
10	CCCCC(Cc1cccnc1)(C(=O)OC(C)(C)C)S(=O)(=O)c1ccc(OC)cc1 (stereo not drawn)

Source: a melting point compilation (Tetko et al.; mined from patent text by program, amines drawn as free bases though some values may be those of a salt)
